Like-named read-outs stand apart in the source and are kept apart here.

Test [1] deals with primary human T-cells.
Test [2] deals with primary human T-cells. The test can be described thus: Proliferation assay after 5 days (CellTiter-Glo, CD3 stimulation; PBS counter screen). It counts as cell-based. The conditions noted are these: CD3 stimulation; for Emax / Emax proliferation (% activation): 5 days, normalized to reference compound A1 as stimulator control = 100%, DMSO neutral control; for Emax: read-out: Emax proliferation (% activation); for EC50: primary human T-cells, CellTiter-Glo after 5 days, EC50 of fitted sigmoidal curve, read-out: Tcell Proliferation CD3 EC50. As to the method: Compounds are then added (see next section) to medium only plates.
Cells are assessed for proliferation 5 days later by measuring […] using CellTiterGlo (Promega).
After 5 days, for detection of ATP which is directly proportional to the number of cells present per well, the CellTiter-Glo® 2.0 Reagent is used. After visual control for toxicity or precipitations of the tested compounds, the plates are equilibrated to room temperature for 45 minutes. CellTiter-Glo® 2.0 Reagent is equilibrated to room temperature as well. After equilibration, an equal amount of CellTiter-Glo reagent is added to the cells (80 μl/well) with an electronic multichannel pipette. Plates are placed on a rocking platform for 15 minutes at room temperature. After incubation, the bottom of the plates is sealed with backing tape. Luminescence is measured with PHERAstar FSX (interval time 0.5 sec, gain 3000, focal height 15 mm) and exported as CSV file for analysis in Genedata screener.
Compounds which activate unstimulated cells (see IL2 measurements) or compounds which negatively affected viability were flagged.
Background: Cellular ATP, detected with luciferase, serves as a proxy for viable cell number.

As to `CC(Nc1nnc(-c2cc3c(cc2F)S(=O)(=O)C[C@H](N)C(=O)N3Cc2ccc(Cl)cc2)o1)C1CC1(F)F` (single isomer, unassigned) [Example 495], the results for the EC50 in the test with primary human T-cells [1] and in the test on primary human T-cells [2] were 0.799 µM and 0.263 µM, respectively. The Emax in the test on primary human T-cells [2] (Homo sapiens, T-cell, 120 h) was determined as 93%.
On to `CC(Nc1nnc(-c2cc3c(cc2F)S(=O)(=O)C[C@H](N)C(=O)N3Cc2ccc(Cl)cc2)o1)C1CC1(F)F` (single isomer, unassigned) [Example 496], for which the EC50 in the test with primary human T-cells [1] is over 10 µM. In addition, in the test with primary human T-cells [2], the “Emax proliferation (% activation)” value is recorded as 91 % activation and the EC50 was determined as 1.15 µM.
Turning to `N[C@H]1C[S+]([O-])c2cc(F)c(-c3noc(N4CCOCC4)n3)cc2N(Cc2ccc(Cl)cc2)C1=O` (single isomer, unassigned; epimer a) [Example 209], the EC50 with primary human T-cells [1] came to 5.81 µM. Besides, in the test on primary human T-cells [2] (Homo sapiens, T-cell, 120 h), the Emax stood at 92% and the EC50 came to 4.1 µM.
For `CC(C)(C)c1nc(-c2cc3c(cc2F)[S+]([O-])C[C@H](N)C(=O)N3Cc2ccc(Cl)cc2)no1` (single isomer, unassigned; epimer a) [Example 340], the EC50 with primary human T-cells [1] amounted to 3.08 µM; in the test on primary human T-cells [2], 1.35 µM. Further, in the test with primary human T-cells [2] (Homo sapiens, T-cell, 120 h), the Emax came out at 121%.
`CN1CC(c2nc(-c3cc4c(cc3F)[S+]([O-])C[C@H](N)C(=O)N4Cc3ccc(Cl)cc3)no2)CC(F)(F)C1` (single isomer, unassigned; epimer a) [Example 342]: in the test with primary human T-cells [1], the EC50 is over 10 µM. Besides, in the test with primary human T-cells [2], the “Emax proliferation (% activation)” value is given as 80 % activation and the EC50 was determined as 4.85 µM.
Consider `COC(F)(c1nnc(-c2ccc3c(c2)N(Cc2ccc(OC(F)(F)F)cc2)C(=O)[C@@H](N)C[S+]3[O-])o1)C(F)(F)F` (single isomer, unassigned; epimer a) [Example 425], for which the EC50 was over 10 µM in the test on primary human T-cells [1] and 1.88 µM with primary human T-cells [2] (Homo sapiens, T-cell, 120 h). Also, the “Emax proliferation (% activation)” value in the test with primary human T-cells [2] turned out to be 81 % activation.
Take `N[C@H]1C[S+]([O-])c2ccc(-c3nnc(CC(F)(F)F)o3)cc2N(Cc2ccc(OC(F)(F)F)cc2)C1=O` (single isomer, unassigned; epimer a) [Example 427]: the EC50 with primary human T-cells [1] and with primary human T-cells [2] was over 10 µM throughout. In the test on primary human T-cells [2] (Homo sapiens, T-cell, 120 h), the Emax turned out to be 26%.
Take `N[C@H]1C[S+]([O-])c2cc(F)c(-c3noc(N4CCOC5(CC5)C4)n3)cc2N(Cc2ccc(Cl)cc2)C1=O` (single isomer, unassigned; epimer b) [Example 210]: the EC50 was found to be 7.17 µM with primary human T-cells [1] and 1.55 µM in the test on primary human T-cells [2].
In the case of `COC(F)(c1nc(-c2cc3c(cc2F)[S+]([O-])C[C@H](N)C(=O)N3Cc2ccc(Cl)cc2)no1)C(F)(F)F` (single isomer, unassigned; epimer b) [Example 339], the EC50 in the test with primary human T-cells [1] amounted to 1.3 µM; in the test on primary human T-cells [2], 0.421 µM. Besides, the “Emax proliferation (% activation)” value in the test on primary human T-cells [2] is reported as 141 % activation.
On to `CC(C)(C)c1nc(-c2cc3c(cc2F)[S+]([O-])C[C@H](N)C(=O)N3Cc2ccc(Cl)cc2)no1` (single isomer, unassigned; epimer b) [Example 341], for which the EC50 with primary human T-cells [1] is over 10 µM. In the test on primary human T-cells [2], the “Emax proliferation (% activation)” value is 105 % activation and the EC50 was determined as 3.01 µM.
As to `CCc1cn(-c2cc3c(cc2F)SC[C@H](N)C(=O)N3Cc2ccc(Cl)cc2)nn1` [Example 1, (3R)-3-amino-5-[(4-chlorophenyl)methyl]-7-(4-ethyltriazol-1-yl)-8-fluoro-2,3-dihydro-1,5-benzothiazepin-4-one], in the test with primary human T-cells [2] (Homo sapiens, T-cell, 120 h), the Emax worked out at 33% and the EC50 is over 20 µM.
On to `N[C@H]1CSc2cc(F)c(-n3cc(Cc4ccc(Cl)cc4)nn3)cc2N(Cc2ccc(Cl)cc2)C1=O` [Example 2, (3R)-3-amino-5-[(4-chlorophenyl)methyl]-7-[4-[(4-chlorophenyl)methyl]triazol-1-yl]-8-fluoro-2,3-dihydro-1,5-benzothiazepin-4-one], for which, in the test on primary human T-cells [2] (Homo sapiens, T-cell, 120 h), the Emax came to 34% and the EC50 is over 20 µM.
With `N[C@H]1CS(=O)(=O)c2cc(F)c(-n3cc(Cc4ccc(Cl)cc4)nn3)cc2N(Cc2ccc(Cl)cc2)C1=O` [Example 4, (3R)-3-amino-5-[(4-chlorophenyl)methyl]-7-[4-[(4-chlorophenyl)methyl]triazol-1-yl]-8-fluoro-1,1-dioxo-2,3-dihydro-1λ^6,5-benzothiazepin-4-one], in the test on primary human T-cells [2] (Homo sapiens, T-cell, 120 h), the Emax worked out at 168% and the EC50 was found to be 1.05 µM.
Turning to `CCn1nnc(-c2cc3c(cc2F)S(=O)(=O)C[C@H](N)C(=O)N3Cc2ccc(Cl)cc2)n1` [Example 7, (3R)-3-amino-5-[(4-chlorophenyl)methyl]-7-(2-ethyltetrazol-5-yl)-8-fluoro-1,1-dioxo-2,3-dihydro-1λ^6,5-benzothiazepin-4-one], in the test with primary human T-cells [2] (Homo sapiens, T-cell, 120 h), the Emax came out at 264% and the EC50 came to 2.75 µM.
In the case of `N[C@H]1CS(=O)(=O)c2cc(F)c(-c3nc(C4CC4)no3)cc2N(Cc2ccc(Cl)cc2)C1=O` [Example 40, (3R)-3-amino-5-[(4-chlorophenyl)methyl]-7-(3-cyclopropyl-1,2,4-oxadiazol-5-yl)-8-fluoro-1,1-dioxo-2,3-dihydro-1λ^6,5-benzothiazepin-4-one], in the test with primary human T-cells [2] (Homo sapiens, T-cell, 120 h), the Emax is 34% and the EC50 is over 20 µM.
Consider `CCCc1noc(-c2cc3c(cc2F)S(=O)(=O)C[C@H](N)C(=O)N3Cc2ccc(Cl)cc2)n1` [Example 42, (3R)-3-Amino-5-[(4-chlorophenyl)methyl]-8-fluoro-1,1-dioxo-7-(3-propyl-1,2,4-oxadiazol-5-yl)-2,3-dihydro-1λ^6,5-benzothiazepin-4-one], for which, in the test on primary human T-cells [2] (Homo sapiens, T-cell, 120 h), the Emax came to 80% and the EC50 was found to be 1.31 µM.
For `N[C@H]1CS(=O)(=O)c2cc(F)c(-c3nc(Cc4ccc(Cl)cc4)no3)cc2N(Cc2ccc(Cl)cc2)C1=O` [Example 44, (3R)-3-Amino-5-[(4-chlorophenyl)methyl]-7-[3-[(4-chlorophenyl)methyl]-1,2,4-oxadiazol-5-yl]-8-fluoro-1,1-dioxo-2,3-dihydro-1λ^6,5-benzothiazepin-4-one], in the test on primary human T-cells [2] (Homo sapiens, T-cell, 120 h), the Emax was found to be 122% and the EC50 worked out at 0.702 µM.
`N[C@H]1CS(=O)(=O)c2cc(F)c(-c3nc(COCc4ccccc4)no3)cc2N(Cc2ccc(Cl)cc2)C1=O` [Example 45, (3R)-3-Amino-7-[3-(benzyloxymethyl)-1,2,4-oxadiazol-5-yl]-5-[(4-chlorophenyl)methyl]-8-fluoro-1,1-dioxo-2,3-dihydro-1λ^6,5-benzothiazepin-4-one]: in the test on primary human T-cells [2] (Homo sapiens, T-cell, 120 h), the Emax is 80% and the EC50 is 1.97 µM.
In the same order, the values of `NCc1noc(-c2cc3c(cc2F)S(=O)(=O)C[C@H](N)C(=O)N3Cc2ccc(Cl)cc2)n1` [Example 50, (3R)-3-amino-7--[3-(aminomethyl)-1,2,4-oxadiazol-5-yl]-5-[(4-chlorophenyl)methyl]-8-fluoro-1,1-dioxo-2,3-dihydro-1λ^6,5-benzothiazepin-4-one] are 40% and over 20 µM.
Consider `CCc1noc(-c2ccc3c(c2)N(Cc2ccc(Cl)cc2)C(=O)[C@@H](N)CS3(=O)=O)n1` [Example 51, (3R)-3-amino-5-[(4-chlorophenyl)methyl]-7-(3-ethyl-1,2,4-oxadiazol-5-yl)-1,1-dioxo-2,3-dihydro-1λ^6,5-benzothiazepin-4-one], for which, in the test with primary human T-cells [2] (Homo sapiens, T-cell, 120 h), the Emax worked out at 94% and the EC50 turned out to be 2.69 µM.
In the case of `N[C@H]1CS(=O)(=O)c2cc(F)c(-c3nnc(CCCC(F)(F)F)o3)cc2N(Cc2ccc(Cl)cc2)C1=O` [Example 79, (3R)-3-Amino-5-[(4-chlorophenyl)methyl]-8-fluoro-1,1-dioxo-7-[5-(4,4,4-trifluorobutyl)-1,3,4-oxadiazol-2-yl]-2,3-dihydro-1λ^6,5-benzothiazepin-4-one], in the test with primary human T-cells [2] (Homo sapiens, T-cell, 120 h), the Emax came to 154% and the EC50 amounted to 0.173 µM.
`CCc1nc(-c2cc3c(cc2F)S(=O)(=O)C[C@H](N)C(=O)N3Cc2ccc(Cl)cc2)no1` [Example 290, (3R)-3-amino-5-[(4-chlorophenyl)methyl]-7-(5-ethyl-1,2,4-oxadiazol-3-yl)-8-fluoro-1,1-dioxo-2,3-dihydro-1λ^6,5-benzothiazepin-4-one]: in the test with primary human T-cells [2] (Homo sapiens, T-cell, 120 h), the Emax is 139% and the EC50 worked out at 0.744 µM.
On to `CC(C)(NCC(F)(F)F)c1nc(-c2cc3c(cc2F)S(=O)(=O)C[C@H](N)C(=O)N3Cc2ccc(Cl)cc2)no1` [Example 298, (3R)-3-amino-5-[(4-chlorophenyl)methyl]-8-fluoro-7-[5-[1-methyl-1-(2,2,2-trifluoroethylamino)ethyl]-1,2,4-oxadiazol-3-yl]-1,1-dioxo-2,3-dihydro-1λ^6,5-benzothiazepin-4-one], for which, in the test on primary human T-cells [2] (Homo sapiens, T-cell, 120 h), the Emax was 162%.
As to `COC(=O)N1CCC(C)(c2nc(-c3cc4c(cc3F)S(=O)(=O)C[C@H](N)C(=O)N4Cc3ccc(Cl)cc3)no2)CC1` [Example 307, methyl 4-[3-[(3R)-3-amino-5-[(4-chlorophenyl)methyl]-8-fluoro-1,1,4-trioxo-2,3-dihydro-1λ^6,5-benzothiazepin-7-yl]-1,2,4-oxadiazol-5-yl]-4-methyl-piperidine-1-carboxylate], the Emax with primary human T-cells [2] (Homo sapiens, T-cell, 120 h) was found to be 143%.
The same measure, in the same setting: the same measure for `CC(C)(C)c1ncn(-c2cc3c(cc2F)S(=O)(=O)C[C@H](N)C(=O)N3Cc2ccc(Cl)cc2)n1` [Example 526, (3R)-3-amino-7-(3-tert-butyl-1,2,4-triazol-1-yl)-5-[(4-chlorophenyl)methyl]-8-fluoro-1,1-dioxo-2,3-dihydro-1λ^6,5-benzothiazepin-4-one]: 125%.

The values are drawn from patent US20240368150A1 (Hoffmann-La Roche Inc., priority 2021, published 2024).
